From PMC7413254 (Nature Communications, 2020)

Key:
Type in all cases: cell-based
PfCRT^3D7 = PfCRT^3D7 (Plasmodium falciparum, UniProt Q8IBZ9); assay: cell-based; settings: PfCRT3D7 oocytes, normalised to oocyte type control
Experimental: (§1) Unless specified otherwise, the transport assays were conducted over 1.5 h at 27.5 °C and the reaction buffer was ND96 (96 mM NaCl, 2 mM KCl, 1 mM MgCl2, 1.8 mM CaCl2, 10 mM MES and 10 mM Tris-base) at pH 5.5.
(§2) The intracellular concentrations were calculated using previous estimates of the volume of stage V–VI oocytes (~400 nL[60]). […] The oocytes were injected with VF-6 suspended in 25 nL ND96 buffer adjusted to pH 5.0, 5.5, 6.0 or 7.0, which corresponded to the injection of 2.5–250 fmol of H^+. The Na^+-dependence of the trans-stimulatory effect of VF-6 was assessed by injecting the oocytes with VF-6 suspended in ND96 buffer (pH 5.5) or a Na^+-free version of this buffer (the Na^+ was replaced with choline).
(§3) At least four independent experiments were performed (on different days and using oocytes from different frogs), and within each experiment measurements were made from ten oocytes per treatment.

PfCRT^Dd2 [1] = target: T1, PfCRT^Dd2 (Plasmodium falciparum, UniProt Q9N623, A220S/I356T/K76T/M74I/N326S/N75E/Q271E/R371I); assay: cell-based; settings: for PfCRT-mediated [3H]CQ transport, trans-stimulation (% PfCRTDd2 control): PfCRTDd2 oocytes, normalised to oocyte type control; for [3H]CQ transport (% PfCRTDd2 control), trans-stimulation, PfCRTDd2: PfCRT-mediated component (background subtracted), mean ± SEM, SEM
Experimental: as §1, §2, §3

PfCRT^Ecu1110 [2] = target: T2, PfCRT^Ecu1110 (Plasmodium falciparum, UniProt Q9N623, A220S/I356L/K76T/N326D); assay: cell-based; settings: for PfCRT-mediated [3H]CQ transport, trans-stimulation (% PfCRTEcu1110 control): PfCRTEcu1110 oocytes, normalised to oocyte type control; for [3H]CQ transport (% PfCRTDd2 control), trans-stimulation, PfCRTEcu1110: PfCRT-mediated component (background subtracted), sheet title says normalised to PfCRTDd2 control, mean ± SEM, SEM
Experimental: as §1, §2, §3

PfCRT^Dd2 [3] = target: T1, PfCRT^Dd2; assay: [3H]CQ uptake into Xenopus oocytes, cis-inhibition by unlabelled solute; settings: PfCRTDd2 oocytes, background [3H]CQ accumulation subtracted, normalised to oocyte type control
From the text: (§4) The orientation of PfCRT in the parasite’s DV membrane, and also in the oocyte plasma membrane, is such that its N- and C-termini extend into the cytosol. The oocytes were suspended in a reaction buffer adjusted to pH 5.5 to mimic the pH of the DV lumen[1],[2]. In this scenario, the transport of a substrate via PfCRT from the acidic extracellular solution into the oocyte cytosol[15] is analogous to the parasite’s PfCRT-mediated efflux of a substrate from the acidic DV and into the cytosol. Unless specified otherwise, this is the direction in which substrate transport was measured in the oocyte assays.
as §1
(§5) Ten oocytes were washed twice with the relevant ND96 buffer. […] The assay was terminated by removing the reaction buffer and washing the oocytes with ice-cold ND96 buffer. The oocytes were lysed in 10% (w/v) sodium dodecyl sulfate (SDS) and the radioactivity accumulated within each oocyte was measured with a MicroBeta^2 microplate liquid scintillation analyser (PerkinElmer).
as §3

PfCRT^Ecu1110 [4] = target: T2, PfCRT^Ecu1110; assay: as above; settings: for PfCRT-mediated [3H]CQ transport, cis-inhibition (% PfCRTEcu1110 control): PfCRTEcu1110 oocytes, background [3H]CQ accumulation subtracted, normalised to oocyte type control; for [3H]CQ transport (% PfCRTEcu1110 control), cis-inhibition, PfCRTEcu1110: PfCRT-mediated component (background subtracted), sheet title says normalised to PfCRTDd2 control, mean ± SEM, SEM
From the text: as §4, §1, §5, §3

[5] = [test solute]i = 5 mM (intracellular)
[6] = [test solute]i = 45 mM (intracellular; 30 mM for some solutes due to solubility)
[7] = [test solute]i = 5 mM (injected)
[8] = [test solute]i = 45 mM (30 mM for some solutes due to solubility)

T1 sequence (Q9N623 whole entry A220S/I356T/K76T/M74I/N326S/N75E/Q271E/R371I): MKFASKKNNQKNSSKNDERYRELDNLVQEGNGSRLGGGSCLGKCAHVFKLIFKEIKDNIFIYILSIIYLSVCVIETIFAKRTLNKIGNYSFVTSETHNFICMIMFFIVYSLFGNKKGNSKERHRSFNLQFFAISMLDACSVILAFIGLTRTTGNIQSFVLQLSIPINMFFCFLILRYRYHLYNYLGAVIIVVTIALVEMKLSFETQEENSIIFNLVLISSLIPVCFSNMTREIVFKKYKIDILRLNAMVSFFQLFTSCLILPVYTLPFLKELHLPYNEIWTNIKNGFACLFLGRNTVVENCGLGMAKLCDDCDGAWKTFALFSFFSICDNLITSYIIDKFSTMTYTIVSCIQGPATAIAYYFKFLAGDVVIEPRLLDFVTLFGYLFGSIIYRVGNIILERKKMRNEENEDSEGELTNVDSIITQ
T2 sequence (Q9N623 whole entry A220S/I356L/K76T/N326D): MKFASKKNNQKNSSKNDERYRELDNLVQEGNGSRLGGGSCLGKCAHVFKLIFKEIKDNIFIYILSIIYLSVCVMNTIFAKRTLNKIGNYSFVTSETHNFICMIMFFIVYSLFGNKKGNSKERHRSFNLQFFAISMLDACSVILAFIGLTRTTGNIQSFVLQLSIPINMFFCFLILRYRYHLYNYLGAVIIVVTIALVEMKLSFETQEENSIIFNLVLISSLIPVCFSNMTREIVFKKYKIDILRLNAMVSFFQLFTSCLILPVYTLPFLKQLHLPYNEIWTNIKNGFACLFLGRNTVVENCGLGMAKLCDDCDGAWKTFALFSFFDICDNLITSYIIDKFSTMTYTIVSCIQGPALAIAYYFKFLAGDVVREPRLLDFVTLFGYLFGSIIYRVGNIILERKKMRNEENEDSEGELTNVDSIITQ
PfCRT^3D7, sequence (Q8IBZ9 59-398): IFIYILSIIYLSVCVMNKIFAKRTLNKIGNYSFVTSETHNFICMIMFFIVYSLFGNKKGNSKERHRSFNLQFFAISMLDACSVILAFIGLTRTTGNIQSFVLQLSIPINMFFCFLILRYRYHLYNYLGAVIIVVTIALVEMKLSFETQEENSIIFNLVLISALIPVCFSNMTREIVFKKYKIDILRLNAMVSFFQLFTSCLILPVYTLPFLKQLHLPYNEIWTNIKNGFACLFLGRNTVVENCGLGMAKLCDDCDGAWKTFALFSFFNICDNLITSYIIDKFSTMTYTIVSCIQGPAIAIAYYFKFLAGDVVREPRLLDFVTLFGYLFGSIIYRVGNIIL

Row | Substance | PfCRT-mediated [3H]CQ transport, trans-stimulation (% PfCRT3D7 control) (PfCRT^3D7; [5]) | PfCRT-mediated [3H]CQ transport, trans-stimulation (% PfCRT3D7 control) (PfCRT^3D7; [6]) | PfCRT-mediated [3H]CQ transport, trans-stimulation (% PfCRTDd2 control) (PfCRT^Dd2 [1]; [5]) | PfCRT-mediated [3H]CQ transport, trans-stimulation (% PfCRTDd2 control) (PfCRT^Dd2 [1]; [6]) | [3H]CQ transport (% PfCRTDd2 control), trans-stimulation, PfCRTDd2 (PfCRT^Dd2 [1]; [7]) [% PfCRTDd2 control] | [3H]CQ transport (% PfCRTDd2 control), trans-stimulation, PfCRTDd2 (PfCRT^Dd2 [1]; [8]) [% PfCRTDd2 control] | PfCRT-mediated [3H]CQ transport, trans-stimulation (% PfCRTEcu1110 control) (PfCRT^Ecu1110 [2]; [5]) | PfCRT-mediated [3H]CQ transport, trans-stimulation (% PfCRTEcu1110 control) (PfCRT^Ecu1110 [2]; [6]) | [3H]CQ transport (% PfCRTDd2 control), trans-stimulation, PfCRTEcu1110 (PfCRT^Ecu1110 [2]; [7]) [% PfCRTEcu1110 control] | [3H]CQ transport (% PfCRTDd2 control), trans-stimulation, PfCRTEcu1110 (PfCRT^Ecu1110 [2]; [8]) [% PfCRTEcu1110 control] | PfCRT-mediated [3H]CQ transport, cis-inhibition (% PfCRTDd2 control) (PfCRT^Dd2 [3]; [test solute] = 0.5 mM) | PfCRT-mediated [3H]CQ transport, cis-inhibition (% PfCRTDd2 control) (PfCRT^Dd2 [3]; [test solute] = 1 mM) | PfCRT-mediated [3H]CQ transport, cis-inhibition (% PfCRTDd2 control) (PfCRT^Dd2 [3]; [test solute] = 2 mM) | PfCRT-mediated [3H]CQ transport, cis-inhibition (% PfCRTEcu1110 control) (PfCRT^Ecu1110 [4]; [test solute] = 0.5 mM) | PfCRT-mediated [3H]CQ transport, cis-inhibition (% PfCRTEcu1110 control) (PfCRT^Ecu1110 [4]; [test solute] = 1 mM) | PfCRT-mediated [3H]CQ transport, cis-inhibition (% PfCRTEcu1110 control) (PfCRT^Ecu1110 [4]; [test solute] = 2 mM) | [3H]CQ transport (% PfCRTEcu1110 control), cis-inhibition, PfCRTEcu1110 (PfCRT^Ecu1110 [4]; [test solute] = 0.5 mM) [% PfCRTEcu1110 control] | [3H]CQ transport (% PfCRTEcu1110 control), cis-inhibition, PfCRTEcu1110 (PfCRT^Ecu1110 [4]; [test solute] = 1 mM) [% PfCRTEcu1110 control] | [3H]CQ transport (% PfCRTEcu1110 control), cis-inhibition, PfCRTEcu1110 (PfCRT^Ecu1110 [4]; [test solute] = 2 mM) [% PfCRTEcu1110 control]
1 | EFTPPVQ [EQ-7] | 136 ± 4.2 | 188 ± 4.7 | 96 ± 3.3 | 112 ± 3.2 | 96 ± 3.3 | 112 ± 3.2 | 129 ± 4.5 | 136 ± 2.7 | 39 ± 1.5 | 41 ± 1.8 | 40 ± 1.1 | 28 ± 0.2 | 17 ± 1.1 | 44 ± 1.4 | 32 ± 2.4 | 22 ± 2.9 | 14 ± 0.6 | 10 ± 0.5 | 8.0 ± 0.03
2 | EFTPPVQA [EA-8] | 131 ± 2.9 | 174 ± 3.3 | 97 ± 2.2 | 98 ± 1.9 | – | – | 127 ± 3.1 | 136 ± 4.1 | – | – | – | 27 ± 0.9 | 18 ± 0.2 | 58 ± 1.1 | 43 ± 1.6 | 29 ± 2.5 | – | – | –
3 | FPHFDLS [FS-7] | 96 ± 4.6 | 99 ± 2.7 | 95 ± 4.2 | 98 ± 4.1 | 95 ± 4.2 | 98 ± 4.1 | 99 ± 3.6 | 98 ± 4.3 | 30 ± 1.3 | 30 ± 1.4 | 30 ± 3.7 | 19 ± 0.7 | 11 ± 0.7 | 39 ± 2.5 | 31 ± 1.7 | 17 ± 0.8 | 12 ± 0.4 | 10 ± 0.2 | 5.0 ± 0.04
4 | FSDGLA [FA-6] | 134 ± 3.2 | 190 ± 4.6 | 102 ± 6.2 | 98 ± 4.2 | 102 ± 6.2 | 98 ± 4.2 | 98 ± 4.5 | 96 ± 4.7 | 30 ± 1.4 | 29 ± 1.3 | 29 ± 0.1 | 17 ± 0.7 | 10 ± 0.3 | 60 ± 0.7 | 42 ± 2.5 | 32 ± 0.5 | 19 ± 0.1 | – | 10 ± 0.3
